Reference: patent US10226477B2, “Composition for preventing, improving or treating postmenopausal osteoporosis comprising scopolin” (DONG WOO DANG CO., LTD, priority 2016, dated 2019)
Entries after “also recorded” stand apart in the source; their conditions may differ.

Tests used:
[1] = tested on: MC3T3-E1 cells; experiment: Mineralization of osteoblasts by Alizarin Red S staining; assay type: cell-based; conditions: 5 μg/ml
Procedure: The mineralization of osteoblasts was analyzed by an Alizarlin red S staining method after experimental groups and a control group were each treated with 5 μg/ml of scopolin and cultured. […] That is, it was confirmed that scopolin was effective in stimulating the differentiation of osteoblasts.

[2] = tested on: ddY female ovariectomized (OVX)-mouse; experiment: Bone mineral density (PIXImus) and femoral micro-CT in ovariectomized menopausal mouse model; assay type: in vivo; conditions: oral, 12 weeks, scopolin 20 and 40 mg/kg/day, SrCl2 20 mg/kg/day; for decrease in the bone mineral density caused by the menopause: p<0.05 vs. OVX
Procedure: (§1) To evaluate in vivo efficacy of scopolin, a 10-week-old ddY female ovariectomized (OVX)-mouse was used a menopausal animal model (ovariectomy was performed on the 8-week-old mouse, and the mouse was additionally raised for 2 weeks). Regarding control groups, a Shame mouse that was subjected to laparotomy, but was not subjected to ovariectomy, (normal control group), and an OVX mouse to which physiological saline was added (negative control group) were used, and in addition, a strontium chloride (SrCl2) mouse in which 20 mg/kg/day of SrCl2, which is a compound having an effect in enhancing bone mineral density, was administered by oral injection to an OVX mouse was used as a positive control group in the test for bone mineral density improvement efficacy. Here, an experimental group was prepared by administering scopolin at a dose of 20 mg/kg/day and 40 mg/kg/day by oral injection. The 10-week-old sham-operated mouse and the ddY OVX-mouse were purchased at Central Lab. Animal Inc., and then, were moved to a clean animal breeding room after spending 1 week of purification period in the laboratory animal quarantine room. These mice were individually weighed to be classified into experimental groups without a statistically significant difference in weight. Scopolin used in the experiment was dissolved in 1% DMSO aqueous solution to be prepared as a test solution. In order to bring these mice in the laboratory animal center, a radiation irradiation company, SOYAGREENTEC Inc., was commissioned for sterilization operations using gamma irradiation.
At the beginning of the animal experiment, a PIXImus bone densitometer was used to measure initial bone mineral density (BMD) of the mice. The mice were anesthetized by injecting 50 μl of a mixed anesthetic of zoletil and rompun (a mixture of zoletil and rompun at a ratio of 1:2 was diluted with physiological saline at a ratio of 2:3), and then, were fixed to a bone mineral density measuring frame to measure bone mineral density. After 6 weeks and 12 weeks of the injection of scopolin to the mice, the bone mineral density of the mice was measured by using the PIXImus bone densitometer. After the completion of the experiment during 12 weeks, blood sampling and removal of femoral bone were performed, and micro-CT was taken thereon. In the micro-CT images, bone volume ratios (BV ratios, %), trabecular thickness (Tb.Th), trabecular number (Tb.N), and trabecular spacing (Tb.Sp) were numeralized and analyzed.

[3] = tested on: ddY female ovariectomized (OVX)-mouse; experiment: Serum OPG and RANKL levels by ELISA in ovariectomized menopausal mouse model; assay type: in vivo; conditions: oral, 12 weeks, scopolin 20 and 40 mg/kg/day, SrCl2 20 mg/kg/day; for decrease in the serum level of OPG (bone formation marker) / increase in the serum level of RANKL (bone resorption marker): p<0.05 vs. OVX
Procedure: as §1
Next, the changes of blood metabolism markers in the blood were examined. After 12 weeks of the experiment performed on the postmenopausal mouse model, the blood sampling was performed thereon, and serum samples were collected therefrom. The serum protein levels of osteoprotegerin (OPG), which is a bone formation marker, and receptor activator of nuclear factor-kappa B ligand (RANKL), which is a bone resorption marker, were analyzed by ELISA. […] However, in the experimental groups to which scopolin was administered at a dose of 20 mg/kg/day and 40 mg/kg/day for 12 weeks, it was confirmed that the decrease in the level of OPG, which is the bone formation marker in the blood, the increase in the level of RANKL, which is the bone resorption marker, and the decrease in the OPG/RANKL ratios were inhibited (see FIGS. 9A, 9B, and 9C). Such results were similar with those obtained by the SrCl2 mouse which is the positive control group. In addition, in the statistical analysis, the significance of the efficacy of scopolin was also confirmed (*: p<0.05 vs. OVX negative control group).

[4] = tested on: MC3T3-E1 cells; experiment: Osteoblast differentiation: alkaline phosphatase (ALP) activity; assay type: cell-based
Procedure: The efficacy of scopolin on the differentiation of osteoblasts was evaluated by using the MC3T3-E1 cells. Ascorbic acid (50 μg/ml) and β-glycerophosphate (10 mM), which are osteoblast inducers, were added to the MC3T3-E1 cells, to thereby induce the differentiation for 3 days. Then, the resulting cells were treated with scopolin. Scopolin was dissolved in 1% dimethyl sulfoxide (DMSO) aqueous solution, and then, was applied to the MC3T3-E1 cells at concentrations of 1 μg/ml (Sco1), 5 μg/ml (Sco5), and 10 μg/ml (Sco10). The resulting cells were cultured for additional 48 hours. As a control group, cells were cultured in the same amount of 1% DMSO aqueous solution in which scopolin was not treated. To determine the efficacy of scopolin on the differentiation of osteoblasts, the activity of alkaline phosphatase (ALP) was measured. In detail, the cells that were washed using physiological saline and dissolved using a lytic agent was treated with p-nitrophenyl phosphate, which is a substrate of ALP, and then, cultured at a temperature of 37° C. for 1 hour. Subsequently, 0.5N NaOH, which is a reaction terminating solution, was added the cultured cells, and then, absorbance thereof was measured at a wavelength of 405 nm.

[5] = tested on: MC3T3-E1 cells; experiment: Osteoblast differentiation: ALP staining; assay type: cell-based; conditions: 5 μg/ml
[6] = tested on: MC3T3-E1 cells; experiment: Cytotoxicity of scopolin by cell proliferation analysis (EZ-Cytox, water-soluble tetrazolium salt); assay type: cell-based; conditions: 1 μg/ml, 5 μg/ml and 10 μg/ml, cultured 2 days, vs. physiological saline control
Procedure: Cytotoxicity of scopolin was evaluated by cell proliferation analysis using an EZ-Cytox Enhanced Cell Viability Assay Kit using a water-soluble tetrazolium salt. In detail, MC3T3-E1 cells (3×10^3 cells/well), which are osteoblasts, were cultured in an alpha-minimum essential medium (α-MEM) supplemented with 10% bovine fetus serum, 1 mM sodium pyruvate, 100 unit/L penicillin, and 100 mg/L streptomycin at a temperature of 37° C. under conditions provided with 5% CO2, and then, the cells were treated with scopolin at three different concentrations (1 μg/ml, 5 μg/ml, and 10 μg/ml) and cultured for 2 days. Next, the tetrazolium salt was applied to each of the cultured cells and a sample, followed by being cultured at a temperature of 37° C. for 2 hours, and then, absorbance thereof was measured at a wavelength of 450 nm.

Compound | mineralization (Alizarin Red S staining) [1] | increase in trabecular spacing (Tb.Sp) [2] | low density of the bone structure (micro-CT images) [2] | reduction in BV ratios (bone volume ratio) [2] | reduction in trabecular number (Tb.N) [2] | reduction in trabecular thickness (Tb.Th) [2] | decrease in the bone mineral density caused by the menopause [2] | decrease in the OPG/RANKL ratios [3] | decrease in the serum level of OPG (bone formation marker) [3] | increase in the serum level of RANKL (bone resorption marker) [3] | differentiation of osteoblasts (ALP activity) ([4]; 5 μg/ml or 10 μg/ml, 48 hours after 3 days induction, p<0.05 vs. negative control) | stimulating osteoblast differentiation (overall conclusion) ([4]; MC3T3-E1 cells, 1-10 μg/ml) | ALP staining [5] | effect on the proliferation of the MC3T3-E1 cells (cytotoxicity) [6]
COc1cc2ccc(=O)oc2cc1O[C@@H]1O[C@H](CO)[C@@H](O)[C@H](O)[C@H]1O [scopolin] | increased | inhibited | significantly inhibits; also recorded: inhibited | inhibited | inhibited | inhibited | significantly inhibits; also recorded: inhibited | inhibited | significantly inhibits; also recorded: inhibited | significantly inhibits; also recorded: inhibited | statistically significantly increased | significant effect; also recorded: effective | increased | not toxic; also recorded: no adverse effect
[Cl-].[Cl-].[Sr+2] [SrCl2, strontium chloride, reference compound] |  | similar | similar | similar | similar | similar | similar | similar | similar | similar |  |  |  | 
